From patent publication US9029362B2, “Iminothiadiazine dioxide compounds as brace inhibitors, compositions, and their use” (Merck Sharp & Dohme Corp., priority 2009, dated 2015)
Like-named read-outs stand apart in the source and are kept apart here.

Assays:
[1] = Solution stability, Example A (pH 7.4 phosphate buffer/MeOH, LC/MS); assay type: physicochemical
Protocol: A 1.05 mg/mL stock solution (5 mL) of Ex. 45 in MeOH was prepared. From the stock solution was taken out 1.25 mL and diluted to 25 mL with the addition of 23.75 mL of 10 mM phosphate buffer (pH 7.4)/MeOH (70/30 v/v). This new solution was split into three. One solution was incubated at 4° C., another incubated at 25° C. and the third incubated at 40° C. Each solution was analyzed by LC/MS after day 1, day 2 and day 6 and compared to a standard calibration curve for Ex. 45.
In the following study, the solution stability of the compound of Example 45 was measured and compared to that of Compound Z. The compound of Example 45 is an iminothiadiazine dioxide compound of the invention. Compound Z is the corresponding iminopyrimidinone compound. The structures of the compound of Example 45 and of Compound Z are shown below. Studies were performed in aqueous pH 7.4 buffer containing methanol at 4° C., 25° C. and 40° C.

[2] = Solution stability, Example B (pH 7.4 phosphate buffer/acetonitrile, 25° C., LC/MS); assay type: physicochemical; settings: pH 7.4 buffer at 25° C., after 6 days
Protocol: Stock solutions of the tested compounds were prepared by dissolving about 3 mg of each compound in 3 mL of acetonitrile. Standards for test compounds were prepared by diluting 1 mL of the stock solution with an additional 4 mL of acetonitrile. These standards were stored at 4° C. Samples were prepared by diluting 1 mL of the stock solution with 4 mL of 50 mM pH 7.4 phosphate buffer. These samples were stored at 25° C. in the absence of light. Standards and samples were analyzed by LC/MS initially and at day 1, day 4, and day 6.
HPLC Conditions: • Mobile phase A: 10 mM pH 5 ammonium acetate buffer: methanol (90:10) • Mobile phase B: 10 mM pH 5 ammonium acetate buffer: methanol (10:90)
Column: Zorbax SB-Phenyl 4.6×50 mm, 1.8 μm • Column temperature: 40° C. • Flow: 0.8 mL/min. • Gradient:
• Detectors: UV at 220 nm and 236 nm
MS, ES ionization, positive mode, for identification only at final time point.
The terms reported in the tables below have the following meanings:
Area % is the integration of peak from HPLC as reported by Waters Empower II software.
RRT is the relative retention time of new product compared to the standard of the test compound.
In the following study, the solution stability of the compound of Example 47 was measured and compared to that of Compound Y. The compound of Example 47 is an iminothiadiazine dioxide compound of the invention. […]

[3] = tested on: Caco-2 cells; experiment: Caco-2 Bi-directional Permeability; assay type: in vitro ADME; settings: apical to basolateral, 2-hr incubation; for Caco-2 AP → BL (nm/s) (Iminopyrimidinone): iminopyrimidinone analog
Protocol: (§1) The bi-directional permeability with efflux potential of selected compounds of the invention vs. otherwise structurally identical iminopyrimidinones (collectively referred to as test compounds, shown in the table below) were assessed using Caco-2 cell line. The Caco-2 cells were maintained in DMEM (Dulbecco's Modified Eagle Medium) containing 10% fetal bovine serum, 1% non-essential amino acids, 2 mM L-glutamine, and 1% penicillin-streptomycin in an incubator at ˜37° C. in an atmosphere of 5% CO2 and about 90% relative humidity. The cell culture medium was changed three times weekly. Caco-2 cell monolayers were grown on polyethylene terephthalate filters using 24-well BD Falcon™ Cell Culture Insert Plates (0.33 cm^2 insert area, 1 μm pore size; BD BioSciences, Bedford, Mass.). The culture medium of the plate was changed every other day until used for the transport experiment (21-28 days post seeding).
(§2) The transport buffer (TM) was Hank's balanced salt solution (HBSS) with 10 mM HEPES and 25 mM glucose (pH 7.4) for dosing and TM with 4% bovine serum albumin for receiver (pH 7.4). The bi-directional permeability of the test compounds were tested at concentrations of 1, 10 and 100 μM was measured in triplicate with 2-hr incubation. The cell monolayer integrity was monitored with pre- and post-experimental trans-epithelial electrical resistance and post-experimental Lucifer Yellow (LY) permeability with 1 hr incubation.
(§3) The apparent permeability, recovery and efflux ratio values were calculated using the following equations:

[4] = molecular target: soluble human BACE1 catalytic domain (Homo sapiens (Human), UniProt P56817); experiment: BACE1 HTRF FRET Assay; assay type: biochemical; settings: about values; read-out: Ki value in BACE-1 assay
Chain of soluble human BACE1 catalytic domain (P56817 75-416): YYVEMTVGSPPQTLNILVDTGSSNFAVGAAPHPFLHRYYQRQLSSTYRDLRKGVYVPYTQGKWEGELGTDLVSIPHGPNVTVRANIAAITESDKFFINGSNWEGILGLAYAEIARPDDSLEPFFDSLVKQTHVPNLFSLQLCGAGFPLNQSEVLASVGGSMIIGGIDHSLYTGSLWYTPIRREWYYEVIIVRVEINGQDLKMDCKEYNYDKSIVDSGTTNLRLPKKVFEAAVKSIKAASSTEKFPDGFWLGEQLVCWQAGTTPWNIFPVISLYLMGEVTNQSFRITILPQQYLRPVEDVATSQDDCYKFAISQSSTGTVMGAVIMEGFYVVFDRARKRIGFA

[5] = tested on: rat cortex Aβ40; experiment: Cortical Aβ40 in rats after oral dose (Luminex immunoassay); assay type: in vivo; settings: 3 h after a 10 mg/kg oral dose, relative to vehicle cohort; for Change in rat cortex Aβ40 (Iminopyrimidinone): iminopyrimidinone analog
Protocol: Male CD rats (˜100 g; Crl:CD(SD); Charles River Laboratories, Kingston, N.Y.) were group housed and acclimated to the vivarium for 5-7 days prior to use in a study. Compounds were formulated in 20% hydroxypropyl-β-cyclodextrin and administered orally with a dosing volume of 5 ml/kg for rats. Three h after drug administration, rats were euthanized with excess CO2. The brain was removed from the skull and immediately frozen on dry ice. All tissues were stored at −70° C. until Aβ quantification.
Ab585 was labeled with biotin (b-Ab585) by first dialyzing the antibody sample extensively versus PBS (pH 7.8) to remove impurities, followed by dilution to between 1 and 2 mg/mL protein concentration. EZ-Link Sulfo-NHS-LC-Biotin (Pierce) was dissolved in PBS (pH 7.8) at a concentration of 1 mg/mL immediately prior to use. Ab585 was labeled with EZ-Link Sulfo-NHS-LC-biotin using a 10:1 biotin:antibody ratio by incubation at room temperature for 1 hour. The labeling reaction was quenched by addition of 1.0 M glycine to a final concentration of 0.1 M followed by 10 minute incubation at room temperature. Glycine was removed by extensive dialysis versus PBS.
The antibody was coupled to the beads using the Bio-Plex Amine Coupling Kit (Bio-Rad) as per the manufacturer's recommendations.
Rat brains were thawed briefly at 37° C. and both mid- and hindbrain regions were removed. The remaining material, consisting primarily of cortex (−800 mg) was carried through the guanidine extraction procedure. Cortices were added to a 2 ml BioPur tube (Eppendorf) along with a 6.35 mm chrome-coated steel ball and 1.0 ml of sucrose homogenization buffer (20 mM HEPES [pH 7.5], 50 mM KCl, 50 mM sucrose, 2 mM EDTA, 2 mM EGTA supplemented with complete protease inhibitors [Roche, EDTA-free]). Samples were then homogenized by agitation for 1.5 min at 30 cylces/sec in a MM300 tissue mixer (Retsch®). The resulting cortical homogenate was extracted with guanidine-HCl by mixing 67 μl of homogenate with 133 μl of 5 M Guanidine HCl, 50 mM Tris HCl (pH 8.0). To maximize the efficiency of Aβ extraction, samples were vortexed and then sonicated for 2 minutes in an ice bath using an Ultrasonics XL cup horn sonicator at a power setting of 8 (Heat Systems, Inc.). Insoluble material was removed by ultracentrifugation using a using a TLA-55 rotor in a TL-100 benchtop centrifuge (Beckman) at 100,000×g for 30 minutes. The resulting supernatant was then either diluted 1:10 in 5 M guanidine HCl, 0.05 M Tris HCl (pH 8.0) for protein analysis (BCA protein assay, Pierce Biochemicals) or assayed neat for Aβ340 levels. The Luminex rodent A1340 assay was performed as follows. First, 96 well filter binding plates (Millipore, catalogue #MSBVN12) were wetted with 100 μl of 1×LAβ40 buffer (0.05 M HEPES [pH 7.5], 0.2% BSA, 0.2% Tween-20, 0.15 M NaCl) by vacuum filtration on a Millipore 96-well manifold. […] Guanidine HCl was added to synthetic rodent Aβ40 standards in order to control for the effect of guanidine in brain extracts on the assay performance. Ten microliters of cortical extract, rodent Aβ40 standards or cortical extract from amyloid precursor protein knockout mice (to define background immunoreactivity) was added to each well. Plates were covered and incubated overnight at 4° C. Following the incubation, wells were cleared by vacuum and washed twice with 100 μl of 1×LAβ40 buffer on a Millipore manifold. Phycoerythrin-conjugated streptavidin (PE-strepavidin, BioRad) for detection of bound b-Ab585 was diluted 100-fold in 1×LA340 buffer and 50 μl was added to each well and incubated for 1 hour at room temperature with shaking.

[6] = Caco-2 Bi-directional Permeability; assay type: in vitro ADME; settings: human; for Papp A→B at 2 h: Caco-2, pH 7.4, apical to basolateral, 2-hr incubation, read-out: Caco-2 AP → BL (nm/s) (Iminothiadiazine Dioxide)
Protocol: as §1, §2, §3

[7] = molecular target: purified human autoBACE-2 (Homo sapiens (Human), UniProt Q9Y5Z0); experiment: BACE-2 Assay (BACE-HTRF assay); assay type: biochemical
Chain of purified human autoBACE-2 (Q9Y5Z0 63-518): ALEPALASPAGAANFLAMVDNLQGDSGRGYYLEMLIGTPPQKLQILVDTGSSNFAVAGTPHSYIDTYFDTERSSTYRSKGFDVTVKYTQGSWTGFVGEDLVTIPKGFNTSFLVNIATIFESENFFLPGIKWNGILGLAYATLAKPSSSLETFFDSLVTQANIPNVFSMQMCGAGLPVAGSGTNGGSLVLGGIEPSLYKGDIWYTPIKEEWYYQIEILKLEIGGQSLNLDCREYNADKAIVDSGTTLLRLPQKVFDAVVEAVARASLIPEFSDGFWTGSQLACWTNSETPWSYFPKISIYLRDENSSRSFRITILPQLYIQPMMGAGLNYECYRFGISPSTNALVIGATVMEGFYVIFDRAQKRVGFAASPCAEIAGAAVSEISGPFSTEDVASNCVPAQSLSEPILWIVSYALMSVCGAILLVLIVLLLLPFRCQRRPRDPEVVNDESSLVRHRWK
Protocol: Inhibitor IC50s at purified human autoBACE-2 were determined in a time-resolved endpoint proteolysis assay that measures hydrolysis of the QSY7-[sequence]-Eu-amide FRET peptide substrate (BACE-HTRF assay). […] DMSO was present at 5% final concentration in the assay. Following laser excitation of sample wells at 320 nm, the fluorescence signal at 620 nm was collected for 400 ms following a 50 s delay on a RUBYstar HTRF plate reader (BMG Labtechnologies). Raw RFU data was normalized to maximum (1.0 nM BACE/DMSO) and minimum (no enzyme/DMSO)RFU values. […] The Ki values were calculated from the IC50 using the Cheng-Prusoff equation.

With CN1C(=N)N[C@](C)(c2cc(-c3cccc(C#N)c3)cs2)CC1=O [Compound Z] as the compound, how does the “Assay (Area %), degradation flag” value ([1]; pH 7.4, 4° C., 2 days) read?
The value was “— ((—) stands for >20% degradation)”.

What about the “Assay (Area %), degradation flag” value ([1]; pH 7.4, 4° C., 6 days) of the same compound?
Its value is “— ((—) stands for >20% degradation)”.

And the “Assay (Area %), degradation flag” value ([1]; pH 7.4, 25° C., 2 days)?
The value was “— ((—) stands for >20% degradation)”.

And the “Assay (Area %), degradation flag” value ([1]; pH 7.4, 25° C., 6 days)?
Its value is “— ((—) stands for >20% degradation)”.

What about the “Assay (Area %), degradation flag” value ([1]; pH 7.4, 40° C., 2 days) of the same compound?
Its value is “— ((—) stands for >20% degradation)”.

And the “Assay (Area %), degradation flag” value ([1]; pH 7.4, 40° C., 6 days)?
Its value is “— ((—) stands for >20% degradation)”.

What about the hydrolysis product [2] of the same compound?
Its hydrolysis product is 12.45%.

With CN1C(=N)N[C@](C)(c2cc(-c3cccc(C#N)c3)cs2)CC1=O [drawing 741, reference compound] as the compound, how does the “Caco-2 AP → BL (nm/s) (Iminopyrimidinone)” value [3] read?
Its value is 174 nm/s.

For CC1[C@@](C)(c2cccc(-c3cccc(C#N)c3)c2)NC(=N)N(C)S1(=O)=O (stereo partly shown) [Example 101], which Ki [4] is on record?
The Ki was at least 5 µM.

What does the source list for Cc1cnc(C(=O)Nc2ccc(F)c([C@]3(C)CS(=O)(=O)N(C)C(=N)N3)c2)cn1 [Example 36]?
Change in rat cortex Aβ40 (Iminothiadiazine Dioxide) [5]: −25%; Papp A→B at 2 h [6]: 5.4 ×10⁻⁶ cm/s

With CN1C(=N)N[C@](C)(c2c(F)ccc(NC(=O)c3ccc(F)cn3)c2F)CS1(=O)=O [Example 173] as the compound, how does the “Change in rat cortex Aβ40 (Iminothiadiazine Dioxide)” value (shortened to “Change … (Iminothiadiazine Dioxide)”) [5] read?
Its value is −27%.

What about the “Caco-2 AP → BL (nm/s) (Iminothiadiazine Dioxide)” value [3] of the same compound?
The value was 126 nm/s.

For CN1C(=N)N[C@](C)(c2cc(NC(=O)c3ccc(F)cn3)ccc2F)CC1=O [drawing 709, reference compound], which “Change in rat cortex Aβ40 (Iminopyrimidinone)” value (shortened to “Change … (Iminopyrimidinone)”) [5] is on record?
Its value is −11%.

Which “Caco-2 AP → BL (nm/s) (Iminopyrimidinone)” value [3] does the source give for CC#Cc1cncc(-c2cc(Cl)c([C@]3(C)CC(=O)N(C)C(=N)N3)s2)c1 [drawing 745, reference compound] here?
The value was 153 nm/s.

With CCc1cc2cc(F)c([C@]3(C)CS(=O)(=O)N(C)C(=N)N3)cc2[nH]1 [Example 189] as the compound, how does the Ki [4] read?
The Ki was at least 5 µM.

With COc1cnc(C(=O)Nc2ccc(F)c([C@]3(C)CS(=O)(=O)N(C)C(=N)N3)c2)cn1 [Example 40ai] as the compound, how does the “Change … (Iminothiadiazine Dioxide)” value [5] read?
Its value is −51%.

And the Papp A→B at 2 h [6]?
Its Papp A→B at 2 h is 13.3 ×10⁻⁶ cm/s.

Which results are given for COc1cnc(C(=O)Nc2cc(F)c(F)c([C@]3(C)CS(=O)(=O)N(C)C(=N)N3)c2)cn1 [Example 40di]?
Change in rat cortex Aβ40 (Iminothiadiazine Dioxide) [5]: −38%; Papp A→B at 2 h [6]: 13.6 ×10⁻⁶ cm/s

Which Ki ([7]; about values) does the source give for CN1C(=N)N[C@](C)(c2cc(NC(=O)c3ccc(S(C)(=O)=O)cn3)cc(F)c2F)CS1(=O)=O [Example 40do] here?
Its Ki is at least 0.5 µM.

With CN1C(=N)N[C@](C)(c2cc(-c3ccc(F)c(C#N)c3)cs2)CS1(=O)=O [Example 46] as the compound, how does the Papp A→B at 2 h [6] read?
The Papp A→B at 2 h was 18.9 ×10⁻⁶ cm/s.

Which “Caco-2 AP → BL (nm/s) (Iminopyrimidinone)” value [3] does the source give for CN1C(=N)N[C@](C)(c2cc(-c3ccc(F)c(C#N)c3)cs2)CC1=O [reference compound] here?
Its value is 136 nm/s.

Which “Caco-2 AP → BL (nm/s) (Iminopyrimidinone)” value [3] does the source give for Cc1ccc(C(=O)Nc2ccc(F)c([C@]3(C)CC(=O)N(C)C(=N)N3)c2)nc1 [reference compound] here?
Its value is 0 nm/s.

With CN1C(=N)N[C@](C)(c2cc(-c3cccc(C#N)c3)cs2)CS1(=O)=O [Example 45] as the compound, how does the Papp A→B at 2 h [6] read?
The Papp A→B at 2 h was 22.6 ×10⁻⁶ cm/s.

Which “Caco-2 AP → BL (nm/s) (Iminopyrimidinone)” value [3] does the source give for COc1cnc(C(=O)Nc2cc(F)c(F)c([C@]3(C)CC(=O)N(C)C(=N)N3)c2)cn1 [drawing 735, reference compound] here?
Its value is 65 nm/s.

Which “Change … (Iminopyrimidinone)” value [5] does the source give for CN1C(=N)N[C@](C)(c2cc(NC(=O)c3ccc(C(F)(F)F)cn3)ccc2F)CC1=O [drawing 707, reference compound] here?
Its value is 0%.

With CN1C(=N)N[C@](C)(c2cccc(Nc3ncccc3C#N)n2)CS1(=O)=O [Example 164] as the compound, how does the Ki ([7]; about values) read?
Its Ki is at least 0.5 µM.

For CN1C(=N)N[C@](C)(c2cc(NC(=O)c3ccc(F)cn3)ccc2F)CC1=O [drawing 739, reference compound], which “Caco-2 AP → BL (nm/s) (Iminopyrimidinone)” value [3] is on record?
The value was 25 nm/s.

And the efflux ratio at 2 h ([6]; Caco-2, Papp BL to AP / Papp AP to BL, iminopyrimidinone analog)?
The efflux ratio at 2 h was 6.1.

Which “Change … (Iminopyrimidinone)” value [5] does the source give for CN1C(=N)N[C@](C)(c2cc(NC(=O)c3ccc(F)cn3)ccc2F)CC1=O [drawing 717, reference compound] here?
Its value is −3%.

For CN1C(=N)N[C@](C)(c2cc(NC(=O)c3ccc(C(F)(F)F)cn3)ccc2F)CC1=O [drawing 729, reference compound], which “Caco-2 AP → BL (nm/s) (Iminopyrimidinone)” value [3] is on record?
The value was 17 nm/s.

For Cc1cnc(C(=O)Nc2ccc(F)c([C@]3(C)CC(=O)N(C)C(=N)N3)c2)cn1 [reference compound], which “Caco-2 AP → BL (nm/s) (Iminopyrimidinone)” value [3] is on record?
Its value is 11 nm/s.

What does the source list for CN1C(=N)N[C@](C)(c2cc(NC(=O)c3ccc(Cl)cn3)ccc2F)CS1(=O)=O [Example 34]?
Change in rat cortex Aβ40 (Iminothiadiazine Dioxide) [5]: −51%; Papp A→B at 2 h [6]: 11.8 ×10⁻⁶ cm/s

Which Ki [4] does the source give for CC[C@H]1[C@@](C)(c2cc(F)ccc2F)NC(=N)N(C)S1(=O)=O [Example 98] here?
The Ki was at least 5 µM.

With CN1C(=N)N[C@](C)(c2cc(NC(=O)c3c(F)cncc3C(F)(F)F)cc(F)c2F)CS1(=O)=O [Example 40ex] as the compound, how does the Ki ([7]; about values) read?
Its Ki is at least 0.5 µM.

With CN1C(=N)N[C@](C)(c2cc(NC(=O)c3ccc(C(F)(F)F)cn3)ccc2F)CS1(=O)=O [Example 26] as the compound, how does the “Change … (Iminothiadiazine Dioxide)” value [5] read?
Its value is −33%.

And the Papp A→B at 2 h [6]?
Its Papp A→B at 2 h is 8.9 ×10⁻⁶ cm/s.

Which “Change … (Iminopyrimidinone)” value [5] does the source give for COc1cnc(C(=O)Nc2cc(F)c(F)c([C@]3(C)CC(=O)N(C)C(=N)N3)c2)cn1 [drawing 713, reference compound] here?
The value was “+5%”.

For CN1C(=N)N[C@](C)(c2cc(-c3cccc(C#N)c3)cs2)CC1=O [drawing 719, reference compound], which “Change … (Iminopyrimidinone)” value [5] is on record?
Its value is −5%.

With CN1C(=N)N[C@](C)(c2cccs2)CS1(=O)=O [Example 19] as the compound, how does the Ki [4] read?
Its Ki is at least 5 µM.

What does the source list for CN1C(=N)N[C@](C)(c2cc(NC(=O)c3ccc(F)cn3)ccc2F)CS1(=O)=O [Example 25]?
Change in rat cortex Aβ40 (Iminothiadiazine Dioxide) [5]: −49%; Papp A→B at 2 h [6]: 12.8 ×10⁻⁶ cm/s

With CC#Cc1cncc(-c2cc(Cl)c([C@]3(C)CS(=O)(=O)N(C)C(=N)N3)s2)c1 [Example 52] as the compound, how does the Papp A→B at 2 h [6] read?
Its Papp A→B at 2 h is 27.8 ×10⁻⁶ cm/s.

With CN1C(=N)N[C@](C)(c2cc(NC(=O)c3ccc(Cl)cn3)ccc2F)CC1=O [drawing 705, reference compound] as the compound, how does the “Change … (Iminopyrimidinone)” value [5] read?
Its value is −19%.

Which “Caco-2 AP → BL (nm/s) (Iminopyrimidinone)” value [3] does the source give for CN1C(=N)N[C@](C)(c2cc(NC(=O)c3ccc(F)cn3)ccc2F)CC1=O [drawing 731, reference compound] here?
The value was 22 nm/s.

With CN1C(=N)N[C@](C)(c2cc(NC(=O)c3ccc(Cl)cn3)ccc2F)CC1=O [drawing 727, reference compound] as the compound, how does the “Caco-2 AP → BL (nm/s) (Iminopyrimidinone)” value [3] read?
Its value is 0 nm/s.

For Cc1ccc(C(=O)Nc2ccc(F)c([C@]3(C)CS(=O)(=O)N(C)C(=N)N3)c2)nc1 [Example 35], which Papp A→B at 2 h [6] is on record?
Its Papp A→B at 2 h is 15.1 ×10⁻⁶ cm/s.

For CN1C(=N)N[C@](C)(c2cc(NC(=O)N3CCOCC3)ccc2F)CS1(=O)=O [Example 161a], which Ki ([7]; about values) is on record?
The Ki was at least 0.5 µM.

Which Ki [4] does the source give for Cc1cnc(C(=O)Nc2cc([C@]3(C)CS(=O)(=O)N(C)C(=N)N3)ccn2)cn1 [Example 40x] here?
Its Ki is at least 5 µM.

With CN1C(=N)NC(C)(c2cc(NC(=O)N3CCCCC3)ccc2F)CS1(=O)=O (stereo not shown) [Example 160] as the compound, how does the Ki [7] read?
The Ki was at least 0.5 µM.
